Results as given in patent publication US20120083522A1, “MODULATION OF INFLAMMATORY RESPONSES BY FACTOR XI” (Isis Pharmaceuitcals, inc., priority 2009, published 2012).
In the oligonucleotide strings, read from the 5' end, every base follows the letter of its sugar. An asterisk marks phosphorothioate; unmarked linkages are phosphodiester. Other units and linkages are bracketed, terminal groups are in braces. A string of capitals states the bases alone. e = 2'-O-(2-methoxyethyl) (MOE); [5mC] = 5-methylcytosine; d = 2'-deoxy (DNA)

What was measured:
Assay type in all cases: cell-based
[1] = system: human Factor XI mRNA; assay: Antisense inhibition in HepG2 cells by microwalk gapmers, 75 nM, lipofectin (Example 3); conditions: HepG2 cells, 75 nM
How it was run: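 HepG2 cells (10,000 per well) were transfected with 75 nM gapmer using lipofectin and treated for about 24 h. Factor XI mRNA was quantified by real-time PCR, normalized to RiboGreen total RNA and expressed as percent inhibition versus untreated controls.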

[2] = system: human Factor XI mRNA; assay: Dose-dependent inhibition in HepG2 cells, electroporation (Example 4); conditions: 16 hours
Experimental: (§1) The gapmers were also transfected via electroporation and their dose dependent inhibition of human Factor XI mRNA was measured. Cells were plated at a density of 20,000 cells per well and transfected via electroporation with 0.7 μM, 2.2 μM, 6.7 μM, and 20 μM concentrations of antisense oligonucleotide, as specified in Table 10. After a treatment period of approximately 16 hours, RNA was isolated from the cells and Factor XI mRNA levels were measured by quantitative real-time PCR. Human Factor XI primer probe set RTS 2966 was used to measure mRNA levels. Factor XI mRNA levels were adjusted according to total RNA content, as measured by RIBOGREEN®. Results are presented as percent inhibition of Factor XI, relative to untreated control cells.

[3] = system: human Factor XI mRNA; assay: Dose-dependent inhibition in HepG2 cells, lipofectin (Example 4); conditions: 16 hours
Experimental: as §1, with “Cells” for “The gapmers were also transfected via electroporation and their dose dependent inhibition of human Factor XI mRNA was measured. Cells”, “10,000” for “20,000”, “using lipofectin reagent” for “via electroporation”, “9.375 nM, 18.75 nM, 37.5 nM” for “0.7 μM, 2.2 μM, 6.7 μM,”, “75 nM” for “20 μM”, “9.” for “10.”

[4] = oligonucleotides targeted to nucleobases 1018 to 1042 of SEQ ID NO: 1
[5] = oligonucleotides targeted to nucleobases 1062 to 1091 of SEQ ID NO: 1
[6] = oligonucleotides targeted to nucleobases 1275 to 1318 of SEQ ID NO: 1

413474 (antisense eA*eG*e[5mC]*eA*eA*d[5mC]*d[5mC]*dG*dG*dG*dA*dT*dG*dA*dT*eG*eA*eG*eT*eG) [compound 413474]
% inhibition of human Factor XI mRNA levels [1, 4]: 93%
percent inhibition of Factor XI mRNA, relative to untreated control cells ([2]; 0.7 μM): 0%
percent inhibition of Factor XI mRNA, relative to untreated control cells ([2]; 2.2 μM): 5%
percent inhibition of Factor XI mRNA, relative to untreated control cells ([2]; 6.7 μM): 52%
percent inhibition of Factor XI mRNA, relative to untreated control cells ([2]; 20 μM): 81%
percent inhibition of Factor XI mRNA, relative to untreated control cells ([3]; 9.375 nM): 29%
percent inhibition of Factor XI mRNA, relative to untreated control cells ([3]; 18.75 nM): 44%
percent inhibition of Factor XI mRNA, relative to untreated control cells ([3]; 37.5 nM): 57%
percent inhibition of Factor XI mRNA, relative to untreated control cells ([3]; 75 nM): 67%

416842 (antisense eT*eG*eA*eG*eA*dT*dT*d[5mC]*dT*dT*dT*dG*dG*dG*d[5mC]*e[5mC]*eA*eT*eT*e[5mC]) [compound 416842]
% inhibition of human Factor XI mRNA levels [1, 5]: 94%
percent inhibition of Factor XI mRNA, relative to untreated control cells ([2]; 0.7 μM): 0%
percent inhibition of Factor XI mRNA, relative to untreated control cells ([2]; 2.2 μM): 10%
percent inhibition of Factor XI mRNA, relative to untreated control cells ([2]; 6.7 μM): 66%
percent inhibition of Factor XI mRNA, relative to untreated control cells ([2]; 20 μM): 92%
percent inhibition of Factor XI mRNA, relative to untreated control cells ([3]; 9.375 nM): 18%
percent inhibition of Factor XI mRNA, relative to untreated control cells ([3]; 18.75 nM): 33%
percent inhibition of Factor XI mRNA, relative to untreated control cells ([3]; 37.5 nM): 62%
percent inhibition of Factor XI mRNA, relative to untreated control cells ([3]; 75 nM): 71%

416908 (antisense eG*e[5mC]*eA*dA*d[5mC]*d[5mC]*dG*dG*dG*dA*dT*dG*dA*dT*dG*dA*dG*eT*eG*e[5mC]) [compound 416908]
% inhibition of human Factor XI mRNA levels [1, 4]: 98%
percent inhibition of Factor XI mRNA, relative to untreated control cells ([2]; 0.7 μM): 7%
percent inhibition of Factor XI mRNA, relative to untreated control cells ([2]; 2.2 μM): 58%
percent inhibition of Factor XI mRNA, relative to untreated control cells ([2]; 6.7 μM): 74%
percent inhibition of Factor XI mRNA, relative to untreated control cells ([2]; 20 μM): 89%
percent inhibition of Factor XI mRNA, relative to untreated control cells ([3]; 9.375 nM): 36%
percent inhibition of Factor XI mRNA, relative to untreated control cells ([3]; 18.75 nM): 57%
percent inhibition of Factor XI mRNA, relative to untreated control cells ([3]; 37.5 nM): 67%
percent inhibition of Factor XI mRNA, relative to untreated control cells ([3]; 75 nM): 76%

416922 (antisense eG*e[5mC]*eA*d[5mC]*dA*dG*dT*dT*dT*d[5mC]*dT*dG*dG*d[5mC]*dA*dG*dG*e[5mC]*e[5mC]*eT) [compound 416922]
% inhibition of human Factor XI mRNA levels [1, 6]: 94%
percent inhibition of Factor XI mRNA, relative to untreated control cells ([2]; 0.7 μM): 35%
percent inhibition of Factor XI mRNA, relative to untreated control cells ([2]; 2.2 μM): 51%
percent inhibition of Factor XI mRNA, relative to untreated control cells ([2]; 6.7 μM): 77%
percent inhibition of Factor XI mRNA, relative to untreated control cells ([2]; 20 μM): 91%
percent inhibition of Factor XI mRNA, relative to untreated control cells ([3]; 9.375 nM): 14%
percent inhibition of Factor XI mRNA, relative to untreated control cells ([3]; 18.75 nM): 25%
percent inhibition of Factor XI mRNA, relative to untreated control cells ([3]; 37.5 nM): 49%
percent inhibition of Factor XI mRNA, relative to untreated control cells ([3]; 75 nM): 75%

416923 (antisense eT*eG*e[5mC]*dA*d[5mC]*dA*dG*dT*dT*dT*d[5mC]*dT*dG*dG*d[5mC]*dA*dG*eG*e[5mC]*e[5mC]) [compound 416923]
% inhibition of human Factor XI mRNA levels [1, 6]: 96%
percent inhibition of Factor XI mRNA, relative to untreated control cells ([2]; 0.7 μM): 15%
percent inhibition of Factor XI mRNA, relative to untreated control cells ([2]; 2.2 μM): 30%
percent inhibition of Factor XI mRNA, relative to untreated control cells ([2]; 6.7 μM): 60%
percent inhibition of Factor XI mRNA, relative to untreated control cells ([2]; 20 μM): 90%
percent inhibition of Factor XI mRNA, relative to untreated control cells ([3]; 9.375 nM): 36%
percent inhibition of Factor XI mRNA, relative to untreated control cells ([3]; 18.75 nM): 47%
percent inhibition of Factor XI mRNA, relative to untreated control cells ([3]; 37.5 nM): 60%
percent inhibition of Factor XI mRNA, relative to untreated control cells ([3]; 75 nM): 67%

416992 (antisense eT*eT*dT*dG*dA*dG*dA*dT*dT*d[5mC]*dT*dT*dT*dG*dG*eG*e[5mC]*e[5mC]*eA*eT) [compound 416992]
% inhibition of human Factor XI mRNA levels [1, 5]: 84%

416994 (antisense eT*e[5mC]*dT*dT*dT*dG*dA*dG*dA*dT*dT*d[5mC]*dT*dT*dT*eG*eG*eG*e[5mC]*e[5mC]) [compound 416994]
% inhibition of human Factor XI mRNA levels [1, 5]: 83%

416995 (antisense eT*eT*d[5mC]*dT*dT*dT*dG*dA*dG*dA*dT*dT*d[5mC]*dT*dT*eT*eG*eG*eG*e[5mC]) [compound 416995]
% inhibition of human Factor XI mRNA levels [1, 5]: 64%

416996 (antisense eT*eT*dT*d[5mC]*dT*dT*dT*dG*dA*dG*dA*dT*dT*d[5mC]*dT*eT*eT*eG*eG*eG) [compound 416996]
% inhibition of human Factor XI mRNA levels [1, 5]: 22%

416997 (antisense eA*e[5mC]*dA*dG*dT*dT*dT*d[5mC]*dT*dG*dG*d[5mC]*dA*dG*dG*e[5mC]*e[5mC]*eT*e[5mC]*eG) [compound 416997]
% inhibition of human Factor XI mRNA levels [1, 6]: 84%

416998 (antisense e[5mC]*eA*d[5mC]*dA*dG*dT*dT*dT*d[5mC]*dT*dG*dG*d[5mC]*dA*dG*eG*e[5mC]*e[5mC]*eT*e[5mC]) [compound 416998]
% inhibition of human Factor XI mRNA levels [1, 6]: 88%

417001 (antisense eG*eT*dG*d[5mC]*dA*d[5mC]*dA*dG*dT*dT*dT*d[5mC]*dT*dG*dG*e[5mC]*eA*eG*eG*e[5mC]) [compound 417001]
% inhibition of human Factor XI mRNA levels [1, 6]: 83%

417004 (antisense eT*eT*dG*dG*dT*dG*d[5mC]*dA*d[5mC]*dA*dG*dT*dT*dT*d[5mC]*eT*eG*eG*e[5mC]*eA) [compound 417004]
% inhibition of human Factor XI mRNA levels [1, 6]: 86%

417005 (antisense eA*eT*dT*dG*dG*dT*dG*d[5mC]*dA*d[5mC]*dA*dG*dT*dT*dT*e[5mC]*eT*eG*eG*e[5mC]) [compound 417005]
% inhibition of human Factor XI mRNA levels [1, 6]: 79%

417006 (antisense e[5mC]*eA*dT*dT*dG*dG*dT*dG*d[5mC]*dA*d[5mC]*dA*dG*dT*dT*eT*e[5mC]*eT*eG*eG) [compound 417006]
% inhibition of human Factor XI mRNA levels [1, 6]: 81%

417007 (antisense eG*e[5mC]*dA*dT*dT*dG*dG*dT*dG*d[5mC]*dA*d[5mC]*dA*dG*dT*eT*eT*e[5mC]*eT*eG) [compound 417007]
% inhibition of human Factor XI mRNA levels [1, 6]: 82%

417008 (antisense eG*eG*d[5mC]*dA*dT*dT*dG*dG*dT*dG*d[5mC]*dA*d[5mC]*dA*dG*eT*eT*eT*e[5mC]*eT) [compound 417008]
% inhibition of human Factor XI mRNA levels [1, 6]: 82%

417009 (antisense e[5mC]*eG*dG*d[5mC]*dA*dT*dT*dG*dG*dT*dG*d[5mC]*dA*d[5mC]*dA*eG*eT*eT*eT*e[5mC]) [compound 417009]
% inhibition of human Factor XI mRNA levels [1, 6]: 85%

417010 (antisense eA*e[5mC]*dG*dG*d[5mC]*dA*dT*dT*dG*dG*dT*dG*d[5mC]*dA*d[5mC]*eA*eG*eT*eT*eT) [compound 417010]
% inhibition of human Factor XI mRNA levels [1, 6]: 81%

417011 (antisense eG*eA*d[5mC]*dG*dG*d[5mC]*dA*dT*dT*dG*dG*dT*dG*d[5mC]*dA*e[5mC]*eA*eG*eT*eT) [compound 417011]
% inhibition of human Factor XI mRNA levels [1, 6]: 86%

417012 (antisense eG*eG*dA*d[5mC]*dG*dG*d[5mC]*dA*dT*dT*dG*dG*dT*dG*d[5mC]*eA*e[5mC]*eA*eG*eT) [compound 417012]
% inhibition of human Factor XI mRNA levels [1, 6]: 72%

417013 (antisense e[5mC]*eG*dG*dA*d[5mC]*dG*dG*d[5mC]*dA*dT*dT*dG*dG*dT*dG*e[5mC]*eA*e[5mC]*eA*eG) [compound 417013]
% inhibition of human Factor XI mRNA levels [1, 6]: 86%

417014 (antisense eG*e[5mC]*dG*dG*dA*d[5mC]*dG*dG*d[5mC]*dA*dT*dT*dG*dG*dT*eG*e[5mC]*eA*e[5mC]*eA) [compound 417014]
% inhibition of human Factor XI mRNA levels [1, 6]: 87%

417015 (antisense eA*eG*d[5mC]*dG*dG*dA*d[5mC]*dG*dG*d[5mC]*dA*dT*dT*dG*dG*eT*eG*e[5mC]*eA*e[5mC]) [compound 417015]
% inhibition of human Factor XI mRNA levels [1, 6]: 87%

417016 (antisense e[5mC]*eA*dG*d[5mC]*dG*dG*dA*d[5mC]*dG*dG*d[5mC]*dA*dT*dT*dG*eG*eT*eG*e[5mC]*eA) [compound 417016]
% inhibition of human Factor XI mRNA levels [1, 6]: 85%

417017 (antisense eG*e[5mC]*dA*dG*d[5mC]*dG*dG*dA*d[5mC]*dG*dG*d[5mC]*dA*dT*dT*eG*eG*eT*eG*e[5mC]) [compound 417017]
% inhibition of human Factor XI mRNA levels [1, 6]: 82%

417018 (antisense eG*eG*d[5mC]*dA*dG*d[5mC]*dG*dG*dA*d[5mC]*dG*dG*d[5mC]*dA*dT*eT*eG*eG*eT*eG) [compound 417018]
% inhibition of human Factor XI mRNA levels [1, 6]: 82%

417019 (antisense eT*eG*dG*d[5mC]*dA*dG*d[5mC]*dG*dG*dA*d[5mC]*dG*dG*d[5mC]*dA*eT*eT*eG*eG*eT) [compound 417019]
% inhibition of human Factor XI mRNA levels [1, 6]: 84%

417020 (antisense e[5mC]*eT*dG*dG*d[5mC]*dA*dG*d[5mC]*dG*dG*dA*d[5mC]*dG*dG*d[5mC]*eA*eT*eT*eG*eG) [compound 417020]
% inhibition of human Factor XI mRNA levels [1, 6]: 84%

417021 (antisense eA*e[5mC]*dT*dG*dG*d[5mC]*dA*dG*d[5mC]*dG*dG*dA*d[5mC]*dG*dG*e[5mC]*eA*eT*eT*eG) [compound 417021]
% inhibition of human Factor XI mRNA levels [1, 6]: 74%
